Results: ChEMBL document CHEMBL4385590, “A Survey of the Structures of US FDA Approved Combination Drugs” (J Med Chem, 2019)

Experiment: Half-life in human serum administered once daily

Nc1nc(=O)n([C@@H]2CS[C@H](CO)O2)cc1F [EMTRICITABINE]
half-life: 10 h
